Test results from patent US20130053385A1, “METHOD OF COMBATING AND CONTROLLING PESTS” (SYNGENTA LIMITED, priority 2009, published 2013).

These compounds were tested on Myzus persicae (Green Peach Aphid) (assay: Activity against Myzus persicae, mixed population, feeding/residual contact activity, preventive (sunflower leaf discs, Example B1)). Conditions: foliar, 144 h, 400 ppm, sprayed sunflower leaf discs, 6 days incubation, mixed-age aphids, read-out: activity (mortality).
Format: in vivo
Protocol: Activity Against Myzus persicae (Green Peach Aphid)
(§1) (mixed population, feeding/residual contact activity, preventive)
Sunflower leaf discs are placed on agar in a 24-well microtiter plate and sprayed with test solutions. After drying, the leaf discs are infested with an aphid population of mixed ages. After an incubation period of 6 days, samples are checked for mortality and special effects (e.g. phytotoxicity).
With `Cc1cc(F)cc(C)c1C1C(=O)CC(CC2CCOC2)C1=O` (centres unmarked) [Compound T171] the mortality at 400 ppm was over 80%.
Work on `Cc1cc(Cl)cc(C)c1C1C(=O)CC(CC2CCOCC2)C1=O` (centres unmarked) [Compound T169] yielded a mortality at 400 ppm of over 80%.
Work on `CC(=O)N1CCC(/C=C2\CC(=O)C(c3c(C)cc(C)cc3C)C2=O)CC1` (centres unmarked) [Compound T15] yielded a mortality at 400 ppm of over 80%.
`CCCCCCC(=O)OC1=C(c2c(C)cc(C)cc2C)C(=O)C(CC2CCOC2)C1` (centres unmarked) [Compound P16] was tested, and the mortality at 400 ppm was over 80%.
`CCc1cc(C)cc(C)c1C1C(=O)C/C(=C\C2CCOC2)C1=O` (centres unmarked) [Compound T59] was tested, and the mortality at 400 ppm was over 80%.
In the case of `Cc1cc(C)c(C2C(=O)C(C)C(CC3CCOC3)C2=O)c(C)c1` (centres unmarked) [Compound T29], the mortality at 400 ppm is reported as over 80%.
`CC(=O)N1CCC(CC2CC(=O)C(c3c(C)cc(C)cc3C)C2=O)CC1` (centres unmarked) [Compound T24] was tested, and the mortality at 400 ppm was over 80%.
`Cc1cc(Br)cc(C)c1C1=C(OC(=O)C(C)(C)C)CC(CC2CCOCC2)C1=O` (centres unmarked) [Compound P66] gave a mortality at 400 ppm of over 80%.
`Cc1cc(C)c(C2C(=O)CC(Cc3ccccc3)(CC3CCOC3)C2=O)c(C)c1` (centres unmarked) [Compound T150] gave a mortality at 400 ppm of over 80%.
`Cc1cc(C)c(C2=C(OC(=O)C3CC3)CC(CC3CCOC3)C2=O)c(C)c1` (centres unmarked) [Compound P14] gave a mortality at 400 ppm of over 80%.

Each compound was assayed on Tetranychus urticae (Two-Spotted Spider Mite) (assay: Activity against Tetranychus urticae, mixed population, feeding/residual contact activity, preventive (bean leaf discs, Example B4)). Conditions: foliar, 192 h, 400 ppm, sprayed bean leaf discs, 8 days, mixed-age mites, read-out: activity (egg, larval and adult mortality).
Format: in vivo
Text: Activity Against Tetranychus urticae (Two-Spotted Spider Mite)
as §1
Bean leaf discs on agar in 24-well microtiter plates are sprayed with test solutions. After drying, the leaf discs are infested with mite populations of mixed ages. 8 days later, discs are checked for egg mortality, larval mortality, and adult mortality.
In the case of `CC(=O)N1CCCCC1CC1CC(=O)C(c2c(C)cc(C)cc2C)C1=O` (centres unmarked) [Compound T48], the mortality at 400 ppm is reported as over 80%.
Compound `Cc1cc(F)cc(C)c1C1C(=O)CC(CC2CCOC2)C1=O` (centres unmarked) [Compound T171] has a mortality at 400 ppm of over 80%.
Compound `Cc1cc(C)c(C2C(=O)CC(CC3CCN(C(=O)OC(C)(C)C)CC3)C2=O)c(C)c1` (centres unmarked) [Compound T55] has a mortality at 400 ppm of over 80%.
`Cc1cc(-c2ccccc2F)cc(C)c1C1C(=O)CC(CC2CCOC2)C1=O` (centres unmarked) [Compound T140] was tested, and the mortality at 400 ppm was over 80%.
Compound `Cc1cc(C)c(C2C(=O)CC(CC3CCN(C(=O)C(C)C)C3)C2=O)c(C)c1` (centres unmarked) [Compound T142] has a mortality at 400 ppm of over 80%.
Compound `Cc1cc(-c2ccccc2)cc(C)c1C1C(=O)C/C(=C\C2CCOCC2)C1=O` (centres unmarked) [Compound T66] has a mortality at 400 ppm of over 80%.
In the case of `Cc1cc(C)c(C2=C(OC(=O)C(C)(C)C)CC(CCC3CCOCC3)C2=O)c(C)c1` (centres unmarked) [Compound P34], the mortality at 400 ppm is reported as over 80%.
In the case of `Cc1ccc(C)c(C2C(=O)CC(CC3CCOC3)C2=O)c1` (centres unmarked) [Compound T175], the mortality at 400 ppm is reported as over 80%.
`Cc1cc(-c2ccc(F)cc2)cc(C)c1C1C(=O)CC(CC2CCOC2)C1=O` (centres unmarked) [Compound T158] showed a mortality at 400 ppm of over 80%.
Work on `Cc1cc(C)c(C2C(=O)CC(C)(CC3CCOC3)C2=O)c(C)c1` (centres unmarked) [Compound T30] yielded a mortality at 400 ppm of over 80%.
`CCC(=O)OC1=C(c2c(C)cc(C)cc2C)C(=O)C(CC2CCN(C(=O)CC)CC2)C1` (centres unmarked) [Compound P65] gave a mortality at 400 ppm of over 80%.
`CCc1cc(C)cc(C)c1C1C(=O)CC(CC2CCOCC2)C1=O` (centres unmarked) [Compound T50] was tested, and the mortality at 400 ppm was over 80%.
`Cc1cc(C)c(C2C(=O)CC(CC3CCN(C(=O)C(F)(F)C(F)F)C3)C2=O)c(C)c1` (centres unmarked) [Compound T131] gave a mortality at 400 ppm of over 80%.
`Cc1cc(C)c(C2C(=O)CC(CCC3CCOCC3)C2=O)c(C)c1` (centres unmarked) [Compound T21] was tested, and the mortality at 400 ppm was over 80%.
Compound `Cc1cc(C)c(C2C(=O)CC(CC3C[C@@H]4O[C@H]3[C@@H]3C(=O)N(C)C(=O)[C@@H]34)C2=O)c(C)c1` (some centres unmarked) [Compound T128] has a mortality at 400 ppm of over 80%.
Work on `Cc1cc(C)c(C2C(=O)C/C(=C\C3CCN(C(=O)c4ccccc4)C3)C2=O)c(C)c1` (centres unmarked) [Compound T34] yielded a mortality at 400 ppm of over 80%.
For `Cc1cc(C)c(C2=C(OC(=O)C(C)(C)C)CC(CC3COCCO3)C2=O)c(C)c1` (centres unmarked) [Compound P49], the mortality at 400 ppm was over 80%.
`Cc1cc(C)c(C2C(=O)CC(CC3COCCO3)C2=O)c(C)c1` (centres unmarked) [Compound T40] gave a mortality at 400 ppm of over 80%.
With `CC(=O)N1CCC(CC2CC(=O)C(c3c(C)cc(C)cc3C)C2=O)C1` (centres unmarked) [Compound T35] the mortality at 400 ppm was over 80%.
For `Cc1cc(C)c(C2C(=O)CC(CC3CCN(C(=O)C(F)(F)F)CC3)C2=O)c(C)c1` (centres unmarked) [Compound T163], the mortality at 400 ppm was over 80%.
In the case of `Cc1cc(-c2ccccc2F)cc(C)c1C1C(=O)CC(CC2CCOCC2)C1=O` (centres unmarked) [Compound T139], the mortality at 400 ppm is reported as over 80%.
`CCc1cc(C)cc(C)c1C1C(=O)CC(CCC2CCOCC2)C1=O` (centres unmarked) [Compound T58] gave a mortality at 400 ppm of over 80%.
In the case of `CON1CCC(CC2CC(OC(=O)C(C)(C)C)=C(c3c(C)cc(C)cc3C)C2=O)CC1` (centres unmarked) [Compound P51], the mortality at 400 ppm is reported as over 80%.
With `Cc1cc(C)c(C2C(=O)CC(CC3CCN(C(=O)C(F)(F)C(F)F)CC3)C2=O)c(C)c1` (centres unmarked) [Compound T161] the mortality at 400 ppm was over 80%.
`Cc1cc(-c2ccccc2)cc(C)c1C1C(=O)CC(CC2CCOCC2)C1=O` (centres unmarked) [Compound T67] showed a mortality at 400 ppm of over 80%.
In the case of `CCC1CCC(CC2CC(=O)C(c3c(C)cc(C)cc3C)C2=O)O1` (centres unmarked) [Compound T44], the mortality at 400 ppm is reported as over 80%.
Work on `Cc1cc(C)c(C2=C(OS(=O)(=O)C3CC3)CC(CC3CCOC3)C2=O)c(C)c1` (centres unmarked) [Compound P28] yielded a mortality at 400 ppm of over 80%.
For `Cc1cc(C)c(C2C(=O)CC(CC3OCCO3)C2=O)c(C)c1` (centres unmarked) [Compound T130], the mortality at 400 ppm was over 80%.
Work on `Cc1ccc(C)c(C2C(=O)CC(CC3CCOCC3)C2=O)c1` (centres unmarked) [Compound T164] yielded a mortality at 400 ppm of over 80%.
In the case of `Cc1cc(-c2ccc(C(F)(F)F)cc2)cc(C)c1C1C(=O)CC(CC2CCOCC2)C1=O` (centres unmarked) [Compound T136], the mortality at 400 ppm is reported as over 80%.
Compound `Cc1cc(C)c(C2C(=O)CC(CC3CCN(C(=O)C(F)(F)F)C3)C2=O)c(C)c1` (centres unmarked) [Compound T162] has a mortality at 400 ppm of over 80%.
`Cc1cc(C)c(C2=C(OC(=O)C(C)(C)C)CC(CC3CCN(C(=O)C(C)(C)C)C3)C2=O)c(C)c1` (centres unmarked) [Compound P59] showed a mortality at 400 ppm of over 80%.
In the case of `Cc1cc(-c2ccc(Cl)cc2F)cc(C)c1C1C(=O)C/C(=C\C2CCOC2)C1=O` (centres unmarked) [Compound T135], the mortality at 400 ppm is reported as over 80%.
In the case of `Cc1cc(-c2ccc(OC(F)(F)F)cc2)cc(C)c1C1C(=O)C/C(=C\C2CCOCC2)C1=O` (centres unmarked) [Compound T134], the mortality at 400 ppm is reported as over 80%.
`Cc1cc(C)c(C2C(=O)CC(CC3CCN(C(=O)c4ccccc4C)CC3)C2=O)c(C)c1` (centres unmarked) [Compound T72] gave a mortality at 400 ppm of over 80%.
`Cc1cc(C)c(C2=C(OC(=O)c3ccco3)CC(CC3CCN(C(=O)c4ccco4)C3)C2=O)c(C)c1` (centres unmarked) [Compound P62] gave a mortality at 400 ppm of over 80%.
`Cc1cc(C)c(C2C(=O)CC(C(O)C3CCSCC3)C2=O)c(C)c1` (centres unmarked) [Compound T6] showed a mortality at 400 ppm of over 80%.
In the case of `Cc1cc(F)cc(C)c1C1C(=O)CC(CC2CCOCC2)C1=O` (centres unmarked) [Compound T170], the mortality at 400 ppm is reported as over 80%.
`Cc1cc(C)c(C2C(=O)CC(CC3CCN(S(=O)(=O)C(F)(F)F)CC3)C2=O)c(C)c1` (centres unmarked) [Compound T112] was tested, and the mortality at 400 ppm was over 80%.
Work on `Cc1cc(C)c(C2=C(OC(=O)c3c(C)noc3C)CC(CC3CCN(C(=O)c4c(C)noc4C)C3)C2=O)c(C)c1` (centres unmarked) [Compound P63] yielded a mortality at 400 ppm of over 80%.
Compound `Cc1cc(C)c(C2=C(OC(=O)C(C)C)CC(CC3CCN(C(=O)C(C)C)C3)C2=O)c(C)c1` (centres unmarked) [Compound P58] has a mortality at 400 ppm of over 80%.
For `Cc1cc(C2CC2)cc(C)c1C1C(=O)CC(CC2CCOCC2)C1=O` (centres unmarked) [Compound T173], the mortality at 400 ppm was over 80%.
For `Cc1cc(C)c(C2C(=O)CC(CC3CCN(C(=O)c4ccccc4)C3)C2=O)c(C)c1` (centres unmarked) [Compound T41], the mortality at 400 ppm was over 80%.
Work on `Cc1cc(-c2ccc(OC(F)(F)F)cc2)cc(C)c1C1C(=O)CC(CC2CCOCC2)C1=O` (centres unmarked) [Compound T137] yielded a mortality at 400 ppm of over 80%.
`COC(=O)N1CCC(CC2CC(=O)C(c3c(C)cc(C)cc3C)C2=O)C1` (centres unmarked) [Compound T43] gave a mortality at 400 ppm of over 80%.
Compound `Cc1cc(C)c(C2C(=O)CC(CC3CCN(c4ccc(Cl)cc4)CC3)C2=O)c(C)c1` (centres unmarked) [Compound T60] has a mortality at 400 ppm of over 80%.
